# Results reported in patent US10357477B2, “Anticancer compounds” (REGENTS OF THE UNIVERSITY OF MINNESOTA, priority 2016, dated 2019).
# How the values were obtained:
# MIA PaCa-2 cells = assay: Cell viability assay (MTT) in MIA PaCa-2 cells; type: cell-based; conditions: Homo sapiens, antiproliferative activity, 72 h
# In short: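 MIA PaCa-2 cells exposed 72 h at 37° C to 2-fold serial compound dilutions from 100 μM final, 0.5% DMSO, in triplicate. Viability by MTT (3 h), formazan read at 570 nm minus 650 nm; EC50 from curve fit.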
# [1] = tested on: MCF10A cells (normal human mammary cells); assay: Cell viability assay (MTT) in MCF10A cells; type: cell-based; conditions: MCF-10A, 72 h
# Procedure: MCF10A cells are maintained in minimum essential medium (MEM) (Invitrogen 11095) supplemented with 10% FBS (Invitrogen 16000), 1% 10× non-essential amino acids (NEAA) (Invitrogen 11140), 1% Penicillin/Streptomycin (Invitrogen 15140), 1% GlutaMAX (Invitrogen 35050-061), 20 ng/mL EGF, […] hydrocortisone, 100 ng/mL cholera toxin, 10 μg/mL insulin.
# Cells were plated in 96-well plates at 25×10^4 cells/ml. After 24 hours, compounds were added at 9, 3× dilutions in triplicate from 100 uM final concentration in the appropriate growth media. Plates were incubated for 72 hours at 37° C. in a 5% CO2/95% air humidified atmosphere after which time the media was removed and MTT was added in RPMI phenol red free media. The MTT was removed after 3 hours and formazan crystals were solubilized with 200 μL of isopropanol. Plates were read on a Molecular Devices SpectraMax i3 spectrophotometer at 570 nm for formazan and 690 nm for background subtraction. EC50 values were calculated by fitting the data in GraphPad Prism software.
# [2] = Plasma stability assay, mouse plasma; type: in vitro ADME; conditions: 37° C.
# Procedure: (§1) The plasma stability assay was performed in triplicate by incubating a compound in normal mouse and human plasma at 37° C. At 0, 1, 3, 6, and 24 h, aliquots of the plasma mixture were taken and quenched with 3 volumes of acetonitrile containing an appropriate internal standard. The samples were then vortexed and centrifuged at 14,000 rpm for 5 min. The supernatants were collected and analyzed by LC-MS/MS to determine the remaining percentage at various time points.
# (§2) Quantification and analysis of compounds in biological samples were carried out on an AB Sciex QTrap 5500 mass spectrometer coupled with an Agilent 1260 Infinity HPLC. The chromatographic separation of compounds was achieved using a Phenomenex Kinetex C18 column (50×2.1 mm, 2.6 μm), and MS/MS analysis was conducted using an ESI ion source with MRM detection. The MS/MS detection parameters including declustering potential (DP), entrance potential (EP), collision energy (CE), and collision cell exit potential (CXP) were optimized for each compound.
# [3] = Microsomal stability assay, human liver microsomes; type: in vitro ADME; conditions: pH 7.4; human liver microsomes 0.5 mg/mL, 1 mM NADPH, 1 μM compound; read-out: Microsomal Stability t1/2 Human
# Procedure: (§3) The in vitro microsomal stability assay was conducted in triplicate in mouse and human liver microsomal systems. In a typical incubation, a compound (typically 1 μM final concentration) was spiked into the reaction mixture containing 0.5 mg/mL of liver microsomal protein and 1 mM of NADPH in 0.1 M potassium phosphate buffer (pH 7.4) at 37° C. At various time points, 1 volume of reaction aliquot was taken and quenched with 3 volumes of acetonitrile with an appropriate internal standard. The samples were then vortexed and centrifuged at 14,000 rpm for 5 min. The supernatants were collected and analyzed by LC-MS/MS to determine the in vitro metabolic half-life (t1/2) and intrinsic clearance (CLint). Verapamil was used as a positive control.
# as §2
# [4] = Microsomal stability assay, mouse liver microsomes; type: in vitro ADME; conditions: pH 7.4; mouse liver microsomes 0.5 mg/mL, 1 mM NADPH, 1 μM compound; read-out: Microsomal Stability t1/2 Mouse
# Procedure: as §3, §2
# [5] = Thermodynamic solubility assay; type: physicochemical; conditions: aqueous buffer, thermodynamic from solid, DPBS pH=7.4, 48 h, ambient temperature
# Procedure: Briefly, a saturated solution was made by adding DPBS to the solid compound. The mixture was shaken at 200 rpm for 48 h in a MaxQ 6000 orbital shaker at ambient temperature to allow equilibrium between the solid and dissolved compound. The suspension was then filtered through a 0.45 μm PVDF syringe filter and the filtrate was collected for analysis using UV spectrometry (SpectraMax M5e, Molecular Devices) at λ=240 nm.
# [6] = Plasma stability assay, human plasma; type: in vitro ADME; conditions: 37° C.
# Procedure: as §1, §2
compound,measurement,setting,value
"CNC(=O)c1cccc(Cn2nc(C)c(NC(=O)c3ccc(COc4ccc(C(F)(F)F)cc4)cc3)c2C)c1 [Compound D9c, 3-((3,5-Dimethyl-4-(4-((4-(trifluoromethyl)phenoxy)-methyl)benzamido)-1H-pyrazol-1-yl)methyl)-N-methylbenzamide]",EC50,MIA PaCa-2 cells,0.8 µM
same,EC50,[1],6.7 µM
same,"Plasma Stability (% remaining, 6 h/24 h) Mouse",[2]; 6 h,91%
same,"Plasma Stability (% remaining, 6 h/24 h) Mouse",[2]; 24 h,77%
same,half-life at 1 μM,[3],34 min
same,half-life at 1 μM,[4],60 min
same,solubility at 48 h,[5],67.3 ± 5.2 µM
same,"Plasma Stability (% remaining, 6 h/24 h) Human",[6]; 6 h,99%
same,"Plasma Stability (% remaining, 6 h/24 h) Human",[6]; 24 h,100%
